The values that follow come from US5739162A, “Carbamoylmethylurea derivatives” (Shionogi & Co., Ltd., priority 1994, dated 1998).

One experiment addresses T1, gastrin receptor (Cavia porcellus, UniProt H0VZC5).
T1 construct: stomach was extracted from each animal immediately, from which gastric glands were prepared; from tissue; host or cells: gastric (fundic) glands of male Hartley guinea pigs
T1 sequence (H0VZC5 1-426): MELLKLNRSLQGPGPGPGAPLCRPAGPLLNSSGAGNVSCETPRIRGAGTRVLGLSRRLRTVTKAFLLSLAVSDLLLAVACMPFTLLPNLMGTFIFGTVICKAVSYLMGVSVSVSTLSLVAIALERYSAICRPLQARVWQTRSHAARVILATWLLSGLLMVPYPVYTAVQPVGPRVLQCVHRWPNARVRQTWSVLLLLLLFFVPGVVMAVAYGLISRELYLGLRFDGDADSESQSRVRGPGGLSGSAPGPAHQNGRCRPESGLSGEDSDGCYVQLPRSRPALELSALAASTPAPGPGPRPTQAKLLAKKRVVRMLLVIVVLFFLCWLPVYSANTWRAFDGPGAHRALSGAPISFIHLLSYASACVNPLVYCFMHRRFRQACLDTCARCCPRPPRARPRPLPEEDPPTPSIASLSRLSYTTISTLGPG
Description: Gastrin receptor antagonism: displacement of 125I-labeled gastrin from gastric glands. The class given is binding, guinea pig (male Hartley). The following applies: guinea pig fundic gastric glands; 125I-gastrin 0.2 nM; 30 min, 25° C. How it is done: (§1) The pharmacological effect of compounds (I) prepared in Examples above were evaluated in vitro with respect to antagonistic activity against gastrin receptor, CCK-B receptor or CCK-A receptor, using fundic gland cells of guinea pig, crude membrane specimen from mouse cerebral cortex, or crude membrane specimen from mouse pancreas, respectively.
(§2) Male Hartley guinea pig (450-600 g) or male ddY mouse (24-30 g) were used.
(1) Gastrin Receptor Antagonism
Preparation of gastric glands
Male Hadley guinea pigs (450-600 g) were killed by bleeding and stomach was extracted from each animal immediately, from which gastric glands were prepared.
Preparation of test compounds and procedures of displacing assay A 1M solution of a compound to be tested in DMSO is prepared and diluted with 50% DMSO to obtain a ten-fold dilution series.
The reaction is initiated by the addition of gastric glands to solutions of different concentration each containing ^125 I-labeled gastrin (final concentration, 0.2 nM). The mixture is incubated for 30 min at 25° C., centrifuged at 2000 rpm for 5 min and the supernatant is removed by aspiration. To the pellet is added ice-cooled incubation buffer and mixed gently, followed by an immediate centrifugation and removal of the supernatant by aspiration. The radioactivity is counted on gamma counter. The same procedure was repeated using 50% DMSO solution or human gastrin I (final concentration, 2 μM) instead of a solution of test compound so as to obtain the control value regarding total binding or the value regarding non-specific binding, respectively.
(§3) The IC50 was determined by plotting the ratio (%) of specific binding of a test compound to that of control on semilogarithmic graph and obtaining the concentration corresponding to 50%, wherein: specific binding of control=total binding (cpm)--non-specific binding (cpm); and specific binding of test compound=total binding (cpm)--non-specific binding (cpm).
Background: Displacement assays read how much labelled ligand stays bound in the presence of the test substance.

Another experiment deals with T2, CCK-B receptor (Mus musculus, UniProt P56481).
T2 construct: crude membrane specimen from mouse cerebral cortex; from tissue; host or cells: cerebral cortex of male ddY mice, crude membranes
T2 sequence (P56481 1-453): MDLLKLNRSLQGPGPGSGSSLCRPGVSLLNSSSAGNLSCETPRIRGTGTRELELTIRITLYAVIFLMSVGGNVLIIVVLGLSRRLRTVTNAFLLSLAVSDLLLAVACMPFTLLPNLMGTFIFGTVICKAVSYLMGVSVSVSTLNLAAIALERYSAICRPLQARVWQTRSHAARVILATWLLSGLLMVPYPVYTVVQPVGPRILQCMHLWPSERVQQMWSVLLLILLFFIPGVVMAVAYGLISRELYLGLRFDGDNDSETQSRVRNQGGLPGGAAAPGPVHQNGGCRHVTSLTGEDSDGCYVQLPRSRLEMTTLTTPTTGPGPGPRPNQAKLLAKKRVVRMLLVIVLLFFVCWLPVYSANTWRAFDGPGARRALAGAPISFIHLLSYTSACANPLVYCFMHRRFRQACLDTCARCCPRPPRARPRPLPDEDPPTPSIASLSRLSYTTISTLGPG
The experiment in a line: CCK-B receptor antagonism: displacement of [3H]CCK-8 from crude membrane of cerebral cortex. It is filed as binding, mouse (male ddY). The following applies: [3H]CCK-8 1 nM, 90 min, 25° C. How it is done:
as §1, §2
(§4) (2) CCK-A Receptor Antagonism and CCK-B Receptor Antagonism Preparation of CCK receptor preparations Male ddY mice (24 to 30 g) were killed by decapitation and cerebral cortex (CCK-B) and pancreas (CCK-A) were extracted immediately. Each of cerebral cortex and pancreas was mixed with 50 mM Tris-HCl buffer (pH 7.4) and homogenized with a teflon-glass homogenizer and polytron homogenizer to obtain crude membrane specimens.
(§5) Preparation of test compounds and procedures of displacing assay
(§6) A 1M solution of a compound to be tested in DMSO is prepared and diluted with 50% DMSO to obtain a ten-fold dilution series.
(§7) The reaction is initiated by the addition of crude membrane specimen to solutions of different concentration each containing [^3 H]CCk-8 (final concentration, 1 nM). The mixture is incubated for 90 min at 25° C., filtered through glass filter with aspiration and washed with a cooled 50 mM Tris buffer. After the addition of Aquazol-2 cocktail the radioactivity is counted. The same procedure was repeated using 50% DMSO solution or Ceruletide (final concentration, 1 μM) instead of a solution of test compound so as to obtain the control value regarding total binding or the value regarding non-specific binding, respectively.
as §3

The target of another experiment is T3, CCK-A receptor (Mus musculus, UniProt O08786).
T3 construct: crude membrane specimen from mouse pancreas; from tissue; host or cells: pancreas of male ddY mice, crude membranes
T3 sequence (O08786 1-436): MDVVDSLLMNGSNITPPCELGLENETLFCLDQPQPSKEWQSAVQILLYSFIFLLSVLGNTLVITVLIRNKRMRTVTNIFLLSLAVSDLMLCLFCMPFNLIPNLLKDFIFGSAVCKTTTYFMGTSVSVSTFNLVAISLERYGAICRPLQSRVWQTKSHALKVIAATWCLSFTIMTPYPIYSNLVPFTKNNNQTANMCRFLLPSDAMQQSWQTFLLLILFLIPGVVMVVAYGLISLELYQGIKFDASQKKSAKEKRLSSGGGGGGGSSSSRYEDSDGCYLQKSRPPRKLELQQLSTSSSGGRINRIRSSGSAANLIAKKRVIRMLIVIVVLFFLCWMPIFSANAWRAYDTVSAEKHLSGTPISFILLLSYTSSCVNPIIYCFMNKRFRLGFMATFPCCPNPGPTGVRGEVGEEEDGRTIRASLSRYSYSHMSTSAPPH
Description: CCK-A receptor antagonism: displacement of [3H]CCK-8 from crude membrane of pancreas. It is filed as binding, mouse (male ddY). The following applies: [3H]CCK-8 1 nM, 90 min, 25° C. How it is done:
as §1, §2, §4, §5, §6, §7, §3

A further experiment deals with gastric acid secretion. Description: Inhibitory effect on pentagastrin-stimulated gastric acid secretion in anesthetized rat (perfused stomach, Schild method). The class given is in vivo, rat (Sprague Dawley). The following applies: intraduodenal (i.d.), 0.5% M.C. suspension. The source says: Anti-acid secreting function of carbamoylmethylurea derivative (I) of the present invention has been confirmed by the in vivo experiment (cf. Schild Method; Experiment 1 below). […] From the results of these experiments, it is apparent that the carbamoylmethylurea derivative (I) has an anti-acid secreting function, and is an excellent gastrin receptor antagonist and/or CCK-B receptor antagonist which has enough functional separativeness from CCK-A receptor.
Experiment 1 In Vivo Test
Evaluation of Inhibitory Effect on Gastric Acid Secretion by Child Method
Twenty four hour starved (ad libitum for water) male Sprague Daily rats (8-week-old) were anesthetized with urethane (1.5 g/kg S.C.) and kept breathing with esophagus cannulas. After laparotomy, esophagus cannulas were inserted orally up to proventriculus and ligated around gastric cardiac. Perfusion cannulas were inserted from duodenum into stomach and ligated around pylorus. Another cannulas were placed into duodenum and ligated for administration of drug. After sutra of abdomen, stomach was perfused via the esophagus cannulas with physiological saline (37° C.) while collecting perfusate for a 15 min interval. The perfusate was subjected to titration with 0.001N NaOH solution to determine the acidity. When the basal acid secretion became stable, pentagastrin ([…])was administered in a sustained manner via common carotid vein for about 90 min until the acid secretion reached approximately the highest level, when a test compound (0.5% M.C. suspension) was administered into duodenum through cannulas. The perfusate was collected for a 15 min interval to monitor the acid secretion for 90 min. The percent inhibition was calculated as follows:
Percent inhibition (%)=100×(A-B)/(C-B)
A: the minimum value of total acidity observed after the administration of a test compound;
B: the total acidity obtained immediately before the administration of pentagastrin; and
C: the total acidity obtained immediately before the administration of a test compound.

The structures appear in SMILES notation. Structures can show the parent of a compound that is named as a salt.

As usually defined, the IC50 is the concentration that gives 50% inhibition. Read a low IC50 as greater potency in that assay. Usually ED50 stands for the dose that gives a 50% effect, or the effect in half of the subjects. A high value points to a need for a large dose.

As to `COC(=O)Cc1cccc(NC(=O)NCC(=O)N(CC(=O)OC(C)(C)C)c2ccccc2C(=O)c2ccccc2)c1` [Compound 9m], the concentration for half-maximal inhibition (IC50) on gastrin receptor is 2 nM; on CCK-B receptor, 11 nM; on CCK-A receptor it was 1350 nM.

For the molecule `CC(C)(C)OC(=O)CN(C(=O)CNC(=O)Nc1cccc(CC(=O)O)c1)c1ccccc1C(=O)c1ccccc1` [Compound 8i, 2-(N-(tert-Butoxycarbonylmethyl)-N'-(m-(carboxymethyl)phenyl)ureidomethylcarbonylamino)benzophenone], the IC50 amounted to 2 nM at gastrin receptor, 3 nM at CCK-B receptor and 1700 nM on CCK-A receptor.

Consider `Cc1cccc(NC(=O)N[C@@H]2N=C(c3ccccc3)c3ccccc3N(CC(=O)c3ccccc3C)C2=O)c1` [YM-022, reference compound], for which the results for the IC50 at gastrin receptor, on CCK-B receptor and on CCK-A receptor were 2 nM, 2 nM and 100 nM, respectively. The 50% effect level with gastric acid secretion (ED50) was put at a dose of 0.107 mg/kg.

Turning to `CC(C)(C)OC(=O)CN(C(=O)CNC(=O)Nc1cccc(C(=O)O)c1)c1ccccc1C(=O)C1CCCCC1` [Compound 15d, Cyclohexyl-(2-(N-(t-butoxycarbonylmethyl)-N-(N'-(m-carboxyphenyl)ureidomethylcarbonyl)amino)phenyl)ketone], the values for the concentration for half-maximal inhibition (IC50) on gastrin receptor, at CCK-B receptor and on CCK-A receptor were 3 nM, 6 nM and 2000 nM, respectively.

Consider `CC(C)(C)OC(=O)CN(C(=O)CNC(=O)Nc1cccc(-c2nnn(C(c3ccccc3)(c3ccccc3)c3ccccc3)n2)c1)c1ccccc1C(=O)c1ccccc1` [Compound 7f, 2-(N-(tert-Butoxycarbonylmethyl)-N'-(m-(2-(triphenylmethyl)tetrazol-5-yl)phenyl)ureidomethylcarbonylamino)benzophenone], for which the IC50 at gastrin receptor was 1 nM; on CCK-B receptor, 8 nM; at CCK-A receptor it was 1650 nM.

`CC(C)(C)OC(=O)CN(C(=O)CNC(=O)Nc1cccc(C(=O)O)c1)c1ccccc1C(=O)c1ccccc1` [Compound 8hb, 2-[(tert-Butoxycarbonylmethyl)-[3-(m-(carboxyphenyl)ureidomethylcarbonyl]]aminobenzophenone calcium salt]: the figures for the IC50 on gastrin receptor and at CCK-B receptor were 3 nM and 54 nM, respectively. The “Inhibitory Effect on acid secretion in rat ED50, i.d.” value with gastric acid secretion (calcium salt) was found to be 0.007 mg/kg.

Turning to `CC(C)(C)OC(=O)CN(C(=O)CNC(=O)Nc1ccc(Cl)cc1)c1ccccc1C(=O)c1ccccc1` [Compound 7y, 2-(N-(tert-Butoxycarbonylmethyl)-N'-(p-chlorophenyl)ureidomethylcarbonylamino)benzophenone], the figures for the IC50 on gastrin receptor, on CCK-B receptor and at CCK-A receptor were 42 nM, 190 nM and 1800 nM, respectively.

Take `CC(C)(C)OC(=O)CN(C(=O)CNC(=O)Nc1cccc(C(=O)O)c1)c1ccccc1C(=O)c1ccccc1` [Compound 8ha, 2-[(tert-Butoxycarbonylmethyl)-[3-(m-(carboxylphenyl)ureidomethylcarbonyl]]aminobenzophenone sodium salt]: the values for the IC50 on gastrin receptor, at CCK-B receptor and on CCK-A receptor were 2 nM, 42 nM and 3400 nM, respectively. Moreover, in the experiment on gastric acid secretion (sodium salt), the “Inhibitory Effect on acid secretion in rat ED50, i.d.” value was 0.003 mg/kg.

As to `C=CCOC(=O)c1cccc(NC(=O)NCC(=O)N(CC(=O)NC(C)(C)C)c2ccccc2C(=O)c2ccccc2)c1` [Compound 16a, 2-(N-(tert-Butylcarbamoylmethyl)-N'-(m-(aryloxycarbamoyl)phenyl)ureidomethylcarbonylamino)benzophenone], the half-maximal inhibitory concentration (IC50) at gastrin receptor amounted to 25 nM; at CCK-B receptor, 215 nM; on CCK-A receptor it was 4400 nM.

For `CC(C)(C)NC(=O)CN(C(=O)CNC(=O)Nc1cccc(C(=O)O)c1)c1ccccc1C(=O)c1ccccc1` [Compound 16b, 2-(N-(tert-Butylcarbamoylmethyl)-N'-(m-carboxyphenyl)ureidomethylcarbonylamino)benzophenone], the results for the IC50 on gastrin receptor, at CCK-B receptor and on CCK-A receptor were 6 nM, 210 nM and above 10000 nM, respectively.

Regarding `CC(C)(C)OC(=O)CN(C(=O)CNC(=O)Nc1cccc(OCC(=O)O)c1)c1ccccc1C(=O)c1ccccc1` [Compound 8j, 2-(N-(tert-Butoxycarbonylmethyl)-N'-(m-(carboxymethyloxy)phenyl)ureidomethylcarbonylamino)benzophenone], the IC50 at gastrin receptor turned out to be 3 nM; at CCK-B receptor, 8 nM; on CCK-A receptor, 2200 nM.

On to `Cc1ccc(NC(=O)NCC(=O)N(CC(=O)OC(C)(C)C)c2ccccc2C(=O)c2ccccc2)cc1` [Compound 7z, 2-(N-(tert-Butoxycarbonylmethyl)-N'-(p-tolyl)ureidomethylcarbonylamino)benzophenone], for which the IC50 was 6 nM on gastrin receptor, 66 nM on CCK-B receptor and 1900 nM on CCK-A receptor.
